For this assay, the system named is A498 complex spheroid viability. As to the kind of experiment: Anticancer human tumor A498 cell line growth inhibition.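 On all read-outs here: spheroids exposed to agents for seven days before readout.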 Conditions: for viability, T/C: stronger effect = lower value. The text has this: Multicellular complex tumor spheroid response to LSD1 Inhibitor Iadademstat in combination with a variety of drugs and investigational agents in selected tumor cell lines
The current study was undertaken to assess response to LSD1 inhibitors in combination with standard-of-care drugs and investigational agents in solid tumor complex spheroid models as well as in the K-562 leukemia. Complex spheroids include a stromal component modeled by human endothelial cells (HUVEC) and fibroblasts modeled by human mesenchymal stem cells (MSCs). The concentration ranges selected for each drug and investigational agent were based upon clinically achievable concentrations if the clinical Cmax of the agent was known.
Compounds. The drugs and investigational agents used in this study are listed on Table 1. All of the agents used, including staurosporine (NSC755774) and gemcitabine (NSC613327), were obtained from the Developmental Therapeutics Program, NCI. FDA-approved anticancer drugs are available from the NCI at http://dtp.nci.nih.gov/branches/dscb/oncology_drugset_explanation.html. Drugs and investigational agents were >95% pure by proton nuclear magnetic resonance (NMR) and liquid chromatography/mass spectrometry (LC/MS). Stock solutions were prepared at 400x in DMSO, stored at -70 degrees C, and diluted in fresh medium prior to their use. The final concentration of DMSO in cell culture wells never exceeded 0.25% (v/v). The FDA-approved anticancer drug set is available from the Developmental Therapeutics Program at https://dtp.cancer.gov/organization/dscb/obtaining/available_plates.htm. All drugs and investigational agents were tested over a range starting from a high concentration at or near the clinical Cmax and decreasing in half-log increments. If the clinical Cmax for an agent had not been determined, the highest concentration tested was 10 microM.
Cell Lines. The patient-derived cancer cell (PDC) lines: 292921-168-R-J2-PDC, K24384-001-R-PDC, and 521955-158-R2-J5-PDC pancreatic carcinomas, 556581-035-R-J1 ovarian carcinoma, 324938-238-R-J1-PDC, 855422-203-R-J1-PDC and 883617-216-R-J1-PDC urothelial bladder carcinomas, 743489-274-T-PDC renal cell carcinoma, 138582-R-J1 Merkel cell tumor, K60290-347-R-J1 and K57222-313-R-J1-PDC glioblastomas, 653999-131-R-J2-PDC, LG0703-F948-PDC, and 349418-098-R-PDC non-small cell lung carcinomas, 885512-296-R-J2-PDC, 171881-019-R-J1-PDC breast carcinomas and 186277-243-T-J2-PDC and 233499-124-R-J2-PDC colon carcinomas were obtained from the NCI Patient-Derived Models Repository (PDMR, https://pdmr.cancer.gov). The established cell lines NCI/ADR-RES (RRID:CVCL_14520 and OVCAR-5 (RRID:CVCL_1628) ovarian carcinomas, 786-O (RRID:CVCL_1051) and A498 (RRID:CVCL_A498) renal cell carcinoma, NCI-H211 (ATCC, cat. CRL-5824; RRID:CVCL_1529), NCI-H196 (ATCC, cat. CRL-5823, RRID:CVCL_1509), SW 1271 (ATCC, cat. CRL-2177, RRID:CVCL_1716) and NCI-H1876 (ATCC, cat. CRL-5902, RRID:CVCL_1503) small cell lung carcinomas, MDA-MB-231 (RRID:CVCL_0062) and MDA-MB-468 (RRID:CVCL_0419)breast carcinomas (10-12). Pooled donor human umbilical vein endothelial cells (HUVEC, Lonza, cat. CC-2519) and human mesenchymal stem cells (hMSC, Lonza, cat. PT-2501) were purchased from Lonza (Walkersville, MD).
Cell Culture. All cells were maintained in an incubator at 37 degrees C and 5% CO2 with 95% humidity. The PDC lines were cultured according to standard operating procedures established by the NCI PDMR (https://pdmr.cancer.gov). Briefly all PDCs were thawed and cultured in Matrigel-coated flasks prepared with a working solution of 1X Ham's F-12 nutrient mix, without supplementation (Invitrogen, Waltham, MA, cat. 11765054), 100 U/mL penicillin-streptomycin (Invitrogen, cat. 15140122), and 2.5% Matrigel (Corning Inc., Corning, NY, cat. 354248) for the first three passages. […]

In PubChem BioAssay AID1918947 (Molecular Pharmacology Branch, DTP, NCI, 2023) one finds IC50 and viability, T/C data, which are given here for two molecules.

SMILES strings stand for the structures. Where “and” joins values, the source holds several entries; their conditions need not be identical. Equal entries are not always repeated.

The term IC50 denotes the midpoint of a concentration-inhibition curve. A word on the viability, T/C: it is the ratio of treated to control. With `CC1(C)CCC(CN2CCN(c3ccc(C(=O)NS(=O)(=O)c4ccc(NCC5CCOCC5)c([N+](=O)[O-])c4)c(Oc4cnc5[nH]ccc5c4)c3)CC2)=C(c2ccc(Cl)cc2)C1` + NC1CC1c1ccc(-c2cccc(O)c2)cc1, the IC50 (curve of first compound, second compound 0.1 µM) was 4.51 µM; the IC50 (curve of first compound, second compound 0.316 µM) is 4.16 µM; the IC50 (curve of first compound, second compound 1 µM) is 4.08 µM; the IC50 (curve of first compound, second compound 3.16 µM) came out at 3.7 µM; the IC50 (curve of first compound, second compound 10 µM) is 3.84 µM. Besides, the viability, T/C is, setting by setting: (second compound 0.1 µM, first compound 0.0316 µM) 109%; (second compound 0.1 µM, first compound 0.1 µM) 106%; (second compound 0.1 µM, first compound 0.316 µM) 102%; (second compound 0.1 µM, first compound 1 µM) 93.1%; (second compound 0.1 µM, first compound 3.16 µM) 69.6%; (second compound 0.1 µM, first compound 10 µM) 7.58%. The viability, T/C was 108% (second compound 0.316 µM, first compound 0.0316 µM); 112% (second compound 0.316 µM, first compound 0.1 µM); 96.6% (second compound 0.316 µM, first compound 0.316 µM); 88.2% (second compound 0.316 µM, first compound 1 µM); 66.7% (second compound 0.316 µM, first compound 3.16 µM); 5.66% (second compound 0.316 µM, first compound 10 µM). The viability, T/C by setting is: (second compound 1 µM, first compound 0.0316 µM) 103%; (second compound 1 µM, first compound 0.1 µM) 99.6%; (second compound 1 µM, first compound 0.316 µM) 98.9%; (second compound 1 µM, first compound 1 µM) 84.3%; (second compound 1 µM, first compound 3.16 µM) 64.1%; (second compound 1 µM, first compound 10 µM) 6.2%. The viability, T/C is 100% (second compound 3.16 µM, first compound 0.0316 µM); 91.4% (second compound 3.16 µM, first compound 0.1 µM); 98.9% (second compound 3.16 µM, first compound 0.316 µM); 86.1% (second compound 3.16 µM, first compound 1 µM); 57.2% (second compound 3.16 µM, first compound 3.16 µM); 5.72% (second compound 3.16 µM, first compound 10 µM). In addition, the viability, T/C was 91.9% (second compound 10 µM, first compound 0.0316 µM); 91.6% (second compound 10 µM, first compound 0.1 µM); 86.6% (second compound 10 µM, first compound 0.316 µM); 77.8% (second compound 10 µM, first compound 1 µM); 59.9% (second compound 10 µM, first compound 3.16 µM); 7.06% (second compound 10 µM, first compound 10 µM).
In the case of `Nc1ncn(C2CC(O)C(CO)S2)c(=O)n1` (configuration not stated), the viability, T/C (compound 0.000949 µM) is 105% and 109%; the viability, T/C (compound 0.003 µM) was 104% and 117%; the viability, T/C (compound 0.00949 µM) was 99.6% and 102%; the viability, T/C (compound 0.03 µM) was 85.2% and 89.5%; the viability, T/C (compound 0.0949 µM) was 59.4% and 70%; the viability, T/C (compound 0.3 µM) is 33.8% and 40%. The IC50 (curve of compound) is 0.144 µM and 0.202 µM.
